Results on 19 molecules are retold here after PubChem BioAssay (NCI).

Values joined by “and” are separate entries in the source; they are usually repeats but may differ in a detail not shown here. Equal values may be shown once.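 These data come from cells grown in 96-well plates and exposed to compound for 48 hours at five concentrations. The concentration for 50% growth inhibition is given as GI50. At the TGI there is no net growth.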

One assay concerns HL-60(TB) leukemia. Briefly: NCI anticancer screen, dose series, 48 h.
As to `C#Cc1cnc(=O)n(C2CC(O)C(CO)O2)c1` (stereo unspecified), the GI50 is over 100 µM and the TGI was over 100 µM.
For the molecule `COc1c(C2CC(=O)Nc3c2cnn3Cc2ccco2)cc2c(c1OC)OCO2` (stereo unspecified), the GI50 was 0.301 µM.
As for `O=C(c1cccs1)c1c(C(F)(F)F)n([O-])c2ccccc2[n+]1=O`, the GI50 was 0.25 µM and the TGI stood at 0.966 µM.
Consider `CC(CO)(CO)N=Cc1cc(I)cc(I)c1O`, for which the TGI is 29.6 µM.
As for `CCN1CCN(c2nc(NCCCNc3ccnc4cc(Cl)ccc34)c3ccccc3n2)CC1`, the GI50 was 2.18 µM and the TGI worked out at 4.25 µM.
The matching figures for `CC1(C)N=C(N)N=C(N)N1c1ccc(CCCCc2ccc(S(=O)(=O)F)cc2)cc1`: 0.828 µM and 22.1 µM.
Consider `NC(N)=N/N=C(/c1ccccc1)c1ccc(F)cc1`, for which the GI50 was 3.67 µM.
With `COc1cc(C(=O)NC2c3ccccc3-c3ccccc32)c(N)cc1OCc1ccccc1`, the GI50 is over 71.7 µM and the TGI is over 100 µM.
The matching figures for `Oc1ccccc1/C=N/Nc1ccc2ccccc2n1`: 2.44 µM and over 100 µM.
The matching figures for `COc1ccc(C(=S)N2CCN(c3cccc(Cl)c3)CC2)cc1`: over 100 µM and over 100 µM.
In the case of `CSc1nc(SC)c2c(CN=[N+]=[N-])c(Br)n(Cc3ccccc3)c2n1`, the TGI is over 100 µM.
On to `Clc1ccccc1C(c1ccccc1)(c1ccccc1)n1ccnc1`, for which the GI50 is 1.72 µM and the TGI is 5.21 µM.
`CCCCCCCCCCCCCC(=S)NCCCC[C@H](NC(=O)OCc1ccccc1)C(=O)Nc1ccccc1`: the GI50 was 3.89 µM and the TGI is over 100 µM.
Take `COc1ccc(C(=O)Nc2ncc(Cc3ccc(Cl)cc3)s2)cc1`: the GI50 was 0.0347 µM.
For the molecule `C=C1CCC2C(/C=C(\C)CCC1O)OC(=O)C2C` (stereo unspecified), the GI50 is 51.5 µM and the TGI is over 100 µM.
The matching figures for `CC(C)(C)c1cc(O)c(O)c(C(C)(C)C)c1`: 2.69 µM and 6.8 µM.
The matching figures for `CN1CCN(CC#Cc2cccc(C(=O)c3cnn(-c4ccc(F)cc4)c3N)c2)CC1`: 24.6 µM and over 25 µM.
In the case of `COc1cccc(/C=C/C(=O)c2cc3c(N)c(C(=O)Nc4ccccc4C)sc3nc2C)c1`, the GI50 was 1.1 µM and the TGI is 2.63 µM.
Taken in the same sequence, the figures for `COc1ccc(NC(=O)Nc2n[nH]c3ccccc23)cc1` were over 100 µM and over 100 µM.

In another assay the test system is OVCAR-8 ovarian. Briefly: NCI anticancer screen, dose series, 48 h.
In the case of `C#Cc1cnc(=O)n(C2CC(O)C(CO)O2)c1` (stereo unspecified), the GI50 is over 100 µM and the TGI is over 100 µM.
With `COc1c(C2CC(=O)Nc3c2cnn3Cc2ccco2)cc2c(c1OC)OCO2` (stereo unspecified), the GI50 was 0.924 µM and the TGI is over 100 µM.
Taken in the same sequence, the figures for `O=C(c1cccs1)c1c(C(F)(F)F)n([O-])c2ccccc2[n+]1=O` were 0.601 µM and 1.94 µM.
Molecule `CC(CO)(CO)N=Cc1cc(I)cc(I)c1O` gave a TGI of 48.5 µM.
Consider `CCN1CCN(c2nc(NCCCNc3ccnc4cc(Cl)ccc34)c3ccccc3n2)CC1`, for which the GI50 is 3.5 µM and the TGI came out at 12.9 µM.
Taken in the same sequence, the figures for `CC1(C)N=C(N)N=C(N)N1c1ccc(CCCCc2ccc(S(=O)(=O)F)cc2)cc1` were 1.47 µM and 28.6 µM.
The matching figures for `NC(N)=N/N=C(/c1ccccc1)c1ccc(F)cc1`: 0.593 µM and over 35.1 µM.
Taken in the same sequence, the figures for `COc1cc(C(=O)NC2c3ccccc3-c3ccccc32)c(N)cc1OCc1ccccc1` were 24.2 µM and over 100 µM.
For `Oc1ccccc1/C=N/Nc1ccc2ccccc2n1`, the GI50 is 4.23 µM and the TGI came out at 59.1 µM.
The matching figures for `COc1ccc(C(=S)N2CCN(c3cccc(Cl)c3)CC2)cc1`: over 100 µM and over 100 µM.
For `CSc1nc(SC)c2c(CN=[N+]=[N-])c(Br)n(Cc3ccccc3)c2n1`, the TGI was over 100 µM.
Regarding `Clc1ccccc1C(c1ccccc1)(c1ccccc1)n1ccnc1`, the GI50 was 2.69 µM; the TGI is 20 µM and 26.3 µM.
For `CCCCCCCCCCCCCC(=S)NCCCC[C@H](NC(=O)OCc1ccccc1)C(=O)Nc1ccccc1`, the GI50 is 4.35 µM and the TGI was over 100 µM.
On to `COc1ccc(C(=O)Nc2ncc(Cc3ccc(Cl)cc3)s2)cc1`, for which the GI50 was 0.117 µM and the TGI was over 100 µM.
Taken in the same sequence, the figures for `C=C1CCC2C(/C=C(\C)CCC1O)OC(=O)C2C` (stereo unspecified) were over 100 µM and over 100 µM.
In the case of `CC(C)(C)c1cc(O)c(O)c(C(C)(C)C)c1`, the GI50 was 3.48 µM and the TGI was determined as 16.4 µM.
Taken in the same sequence, the figures for `CN1CCN(CC#Cc2cccc(C(=O)c3cnn(-c4ccc(F)cc4)c3N)c2)CC1` were over 25 µM and over 25 µM.
Taken in the same sequence, the figures for `COc1cccc(/C=C/C(=O)c2cc3c(N)c(C(=O)Nc4ccccc4C)sc3nc2C)c1` were 1.26 µM and over 50 µM.
The matching figures for `COc1ccc(NC(=O)Nc2n[nH]c3ccccc23)cc1`: over 100 µM and over 100 µM.

The test system of another assay is NCI-H226 lung. As to the kind of experiment: NCI anticancer screen, dose series, 48 h.
Regarding `C#Cc1cnc(=O)n(C2CC(O)C(CO)O2)c1` (stereo unspecified), the GI50 was over 100 µM and the TGI is over 100 µM.
As for `COc1c(C2CC(=O)Nc3c2cnn3Cc2ccco2)cc2c(c1OC)OCO2` (stereo unspecified), the GI50 was 3.85 µM and the TGI is over 100 µM.
The matching figures for `O=C(c1cccs1)c1c(C(F)(F)F)n([O-])c2ccccc2[n+]1=O`: 1.05 µM and 3.12 µM.
`CC(CO)(CO)N=Cc1cc(I)cc(I)c1O` yielded a TGI of 34.7 µM.
`CCN1CCN(c2nc(NCCCNc3ccnc4cc(Cl)ccc34)c3ccccc3n2)CC1`: the GI50 was 4.97 µM and the TGI is 26 µM.
The matching figures for `CC1(C)N=C(N)N=C(N)N1c1ccc(CCCCc2ccc(S(=O)(=O)F)cc2)cc1`: 1.99 µM and 33.2 µM.
Take `NC(N)=N/N=C(/c1ccccc1)c1ccc(F)cc1`: the GI50 was 1.06 µM and the TGI is 14.5 µM.
Taken in the same sequence, the figures for `COc1cc(C(=O)NC2c3ccccc3-c3ccccc32)c(N)cc1OCc1ccccc1` were 11.4 µM and 44.3 µM.
The matching figures for `Oc1ccccc1/C=N/Nc1ccc2ccccc2n1`: 4.6 µM and over 100 µM.
The matching figures for `COc1ccc(C(=S)N2CCN(c3cccc(Cl)c3)CC2)cc1`: over 100 µM and over 100 µM.
Regarding `CSc1nc(SC)c2c(CN=[N+]=[N-])c(Br)n(Cc3ccccc3)c2n1`, the TGI was over 100 µM.
With `Clc1ccccc1C(c1ccccc1)(c1ccccc1)n1ccnc1`, the GI50 was 3.13 µM and the TGI was 17.7 µM.
The matching figures for `CCCCCCCCCCCCCC(=S)NCCCC[C@H](NC(=O)OCc1ccccc1)C(=O)Nc1ccccc1`: 5.71 µM and over 100 µM.
Taken in the same sequence, the figures for `COc1ccc(C(=O)Nc2ncc(Cc3ccc(Cl)cc3)s2)cc1` were 0.0771 µM and over 64.3 µM.
On to `C=C1CCC2C(/C=C(\C)CCC1O)OC(=O)C2C` (stereo unspecified), for which the GI50 is over 100 µM and the TGI is over 100 µM.
In the case of `CC(C)(C)c1cc(O)c(O)c(C(C)(C)C)c1`, the GI50 is 6.35 µM and the TGI worked out at 22.8 µM.
The matching figures for `CN1CCN(CC#Cc2cccc(C(=O)c3cnn(-c4ccc(F)cc4)c3N)c2)CC1`: over 25 µM and over 25 µM.
Taken in the same sequence, the figures for `COc1cccc(/C=C/C(=O)c2cc3c(N)c(C(=O)Nc4ccccc4C)sc3nc2C)c1` were 1.07 µM and 2.92 µM.
The matching figures for `COc1ccc(NC(=O)Nc2n[nH]c3ccccc23)cc1`: over 100 µM and over 100 µM.

A further assay deals with HCT-116 colon. Briefly: NCI anticancer screen, dose series, 48 h.
Take `C#Cc1cnc(=O)n(C2CC(O)C(CO)O2)c1` (stereo unspecified): the GI50 was over 100 µM and the TGI is over 100 µM.
As to `COc1c(C2CC(=O)Nc3c2cnn3Cc2ccco2)cc2c(c1OC)OCO2` (stereo unspecified), the GI50 was 0.457 µM and the TGI is over 100 µM.
Turning to `O=C(c1cccs1)c1c(C(F)(F)F)n([O-])c2ccccc2[n+]1=O`, the GI50 was 0.41 µM and the TGI stood at 1.07 µM.
For `CC(CO)(CO)N=Cc1cc(I)cc(I)c1O`, the TGI turned out to be 31.3 µM.
Take `CCN1CCN(c2nc(NCCCNc3ccnc4cc(Cl)ccc34)c3ccccc3n2)CC1`: the GI50 was 2.25 µM and the TGI stood at 6.53 µM.
Taken in the same sequence, the figures for `CC1(C)N=C(N)N=C(N)N1c1ccc(CCCCc2ccc(S(=O)(=O)F)cc2)cc1` were 0.373 µM and 15.8 µM.
The matching figures for `NC(N)=N/N=C(/c1ccccc1)c1ccc(F)cc1`: 0.33 µM and 4.15 µM.
Taken in the same sequence, the figures for `COc1cc(C(=O)NC2c3ccccc3-c3ccccc32)c(N)cc1OCc1ccccc1` were 20.3 µM and over 82.7 µM.
Regarding `Oc1ccccc1/C=N/Nc1ccc2ccccc2n1`, the GI50 is 4.51 µM and the TGI is over 100 µM.
Taken in the same sequence, the figures for `COc1ccc(C(=S)N2CCN(c3cccc(Cl)c3)CC2)cc1` were over 100 µM and over 100 µM.
In turn, `CSc1nc(SC)c2c(CN=[N+]=[N-])c(Br)n(Cc3ccccc3)c2n1` came in with a TGI of over 100 µM.
Consider `Clc1ccccc1C(c1ccccc1)(c1ccccc1)n1ccnc1`, for which the GI50 was 1.44 µM; the TGI is 3.35 µM and 23 µM.
In the case of `CCCCCCCCCCCCCC(=S)NCCCC[C@H](NC(=O)OCc1ccccc1)C(=O)Nc1ccccc1`, the GI50 is 3.77 µM and the TGI was over 100 µM.
On to `COc1ccc(C(=O)Nc2ncc(Cc3ccc(Cl)cc3)s2)cc1`, for which the GI50 was 0.0509 µM and the TGI is over 100 µM.
The matching figures for `C=C1CCC2C(/C=C(\C)CCC1O)OC(=O)C2C` (stereo unspecified): over 100 µM and over 100 µM.
The matching figures for `CC(C)(C)c1cc(O)c(O)c(C(C)(C)C)c1`: 1.83 µM and 3.41 µM.
Consider `CN1CCN(CC#Cc2cccc(C(=O)c3cnn(-c4ccc(F)cc4)c3N)c2)CC1`, for which the GI50 was over 25 µM and the TGI is over 25 µM.
As to `COc1cccc(/C=C/C(=O)c2cc3c(N)c(C(=O)Nc4ccccc4C)sc3nc2C)c1`, the GI50 is 0.822 µM and the TGI came to 1.5 µM.
Taken in the same sequence, the figures for `COc1ccc(NC(=O)Nc2n[nH]c3ccccc23)cc1` were over 100 µM and over 100 µM.
